Source: patent US20050113286A1, “Methods for treating congestive heart failure” (priority 2002, published 2005)

Test system: patients with chronic decompensated HF
Experiment: FUSION I: clinical outcomes (death, hospitalization, days alive and out of hospital) through 12 weeks
Type: in vivo, human
Description: In this multicenter, open-label, pilot study, patients were randomly assigned to 1 of 3 treatment groups in a 1:1:1 ratio: (1) usual care, as determined by the investigating physician; (2) usual care plus nesiritide 0.005 μg/kg/min given for 4 to 6 hours, preceded by a 1.0-μg/kg bolus; or (3) usual care plus nesiritide 0.01 μg/kg/min given for 4 to 6 hours, preceded by a 2.0-μg/kg bolus (FIG. 1). The study treatment period was 12 weeks with an additional 4 weeks of follow-up. Nesiritide (Natrecor®) was supplied by Scios Inc., Fremont, Calif. Informed consent was obtained from each patient prior to enrollment, and the Ethics Committee of each institution prospectively approved the study.
The primary goal of this open-label study was to assess the safety and tolerability of different nesiritide doses administered as serial outpatient infusions. Safety and tolerability were measured through investigator reporting of adverse events (AEs), serious AEs, discontinuations of study infusions, laboratory assessments, and vital signs. An AE was defined as any new onset or worsening of any medical condition since study entry. A serious AE were those AEs, which lead to death, hospitalization, or prolonged hospitalization. The effect of nesiritide infusions on renal function was also monitored as a safety variable, with renal AEs defined as increased blood urea nitrogen (BUN) or serum creatinine levels (determined by investigator's discretion), onset of oliguria, or occurrence of acute renal failure. Clinical events were followed to further evaluate safety and tolerability.
To characterize treatment groups with respect to known prognostic factors for hospitalization or death, patients were prospectively stratified using a Risk Assessment Score (RAS). Two levels of risk were defined: patients with an RAS≧4 (i.e., with 4 or more of the 7 risk factors) and patients with an RAS<4. Risk factors utilized were: (1) serum creatinine of >2.0 mg/dl in the preceding 30 days; (2) NYHA class IV for the preceding 60 days; (3)≧65 years old; (4) history of sustained ventricular tachycardia; (5) ischemic etiology of HF; (6) diabetes; and (7) outpatient use of nesiritide or inotropic agents in preceding 6 months.
The effect of treatment was assessed with a 2-way ANOVA, an F test, a stratified Wilcoxon test, a Wilcoxon test, or the generalized Fisher's exact test, depending on the distribution of the variable. Kaplan-Meier estimates of the survival curves for morbidity/mortality time-to-event data were calculated. A log-rank or stratified log-rank test was used for comparisons between 2 treatment groups.

[1] = RAS ≧4 patients, 0.005 μg/kg/min, n = 24, through 12 weeks
[2] = RAS ≧4 patients, 0.01 μg/kg/min, n = 20, through 12 weeks
[3] = RAS ≧4 patients, both nesiritide groups, n = 44, through 12 weeks
[4] = all patients, 0.005 μg/kg/min, n = 72, through 12 weeks
[5] = all patients, 0.01 μg/kg/min, n = 69, through 12 weeks
[6] = all patients, both nesiritide groups, n = 141, through 12 weeks
[7] = baseline NYHA class IV, 0.005 μg/kg/min, n = 25
[8] = baseline NYHA class IV, 0.01 μg/kg/min, n = 22
[9] = baseline NYHA class IV, both nesiritide groups, n = 47
[10] = baseline NYHA class IV, both nesiritide groups, n = 47, p = 0.148 compared with usual care
[11] = lowest serum creatinine >2.0 mg/dL during 30 days prior to the study, 0.005 μg/kg/min, n = 13
[12] = lowest serum creatinine >2.0 mg/dL during 30 days prior to the study, 0.01 μg/kg/min, n = 14
[13] = lowest serum creatinine >2.0 mg/dL during 30 days prior to the study, both nesiritide groups, n = 27
[14] = lowest serum creatinine >2.0 mg/dL during 30 days prior to the study, both nesiritide groups, n = 27, p = 0.176 compared with usual care

For “Nesiritide: a recombinant form of human B-type natriuretic peptide (BNP)”, the “Hospitalizations compared with usual care” value (NYHA class IV status) was “trend towards a reduction”, the “All-cause death and hospitalization, % of patients” value [1] was 42% and the “All-cause death and hospitalization, number of patients” value [1] was 10. For the same substance, the “All-cause hospitalization, % of patients” value [1] was 42%, the “All-cause hospitalization, number of patients” value [1] was 10 and the “Days alive and out of hospital, 25th percentile” value [1] was 74.6 days. For the same substance, the “Days alive and out of hospital, Mean ± SD” value [1] was 76.3 ± 16.8 days, the “Deaths, % of patients” value [1] was 4% and the “Deaths, number of patients” value [1] was 1. The “All-cause death and hospitalization, % of patients” value [2] was 65%, the “All-cause death and hospitalization, number of patients” value [2] was 13 and the “All-cause hospitalization, % of patients” value [2] was 60%. For the same substance, the “All-cause hospitalization, number of patients” value [2] was 12, the “Days alive and out of hospital, 25th percentile” value [2] was 75.3 days and the “Days alive and out of hospital, Mean ± SD” value [2] was 77.2 ± 14.0 days. The “Deaths, % of patients” value [2] was 5%, the “Deaths, number of patients” value [2] was 1 and the “All-cause death and hospitalization, % of patients” value [3] was 52%. For the same substance, the “All-cause death and hospitalization, number of patients” value [3] was 23, the “All-cause hospitalization, % of patients” value [3] was 50% and the “All-cause hospitalization, number of patients” value [3] was 22. The “Days alive and out of hospital, 25th percentile” value [3] was 75.0 days, the “Days alive and out of hospital, Mean ± SD” value [3] was 76.7 ± 15.5 days and the “Deaths, % of patients” value [3] was 5%. For the same substance, the “Deaths, number of patients” value [3] was 2, the “Days alive and out of the hospital compared to the usual care group” value (RAS≧4 cohort, p=0.027) was “statistically significant increase” and the “Deaths or hospitalizations compared with usual care only” value (RAS≧4 patients) was “statistically significantly fewer”. The “All-cause death and hospitalization, % of patients” value [4] was 46%, the “All-cause death and hospitalization, number of patients” value [4] was 33 and the “All-cause hospitalization, % of patients” value [4] was 44%. For the same substance, the “All-cause hospitalization, number of patients” value [4] was 32, the “Days alive and out of hospital, 25th percentile” value [4] was 74.2 days and the “Days alive and out of hospital, Mean ± SD” value [4] was 76.1 ± 15.3 days. For the same substance, the “Deaths, % of patients” value [4] was 8%, the “Deaths, number of patients” value [4] was 6 and the “All-cause death and hospitalization, % of patients” value [5] was 49%. The “All-cause death and hospitalization, number of patients” value [5] was 34, the “All-cause hospitalization, % of patients” value [5] was 48% and the “All-cause hospitalization, number of patients” value [5] was 33. For the same substance, the “Days alive and out of hospital, 25th percentile” value [5] was 79.0 days, the “Days alive and out of hospital, Mean ± SD” value [5] was 78.9 ± 10.9 days and the “Deaths, % of patients” value [5] was 4%. The “Deaths, number of patients” value [5] was 3, the “All-cause death and hospitalization, % of patients” value [6] was 48% and the “All-cause death and hospitalization, number of patients” value [6] was 67. The “All-cause hospitalization, % of patients” value [6] was 46%, the “All-cause hospitalization, number of patients” value [6] was 65 and the “Days alive and out of hospital, 25th percentile” value [6] was 77.6 days. For the same substance, the “Days alive and out of hospital, Mean ± SD” value [6] was 77.5 ± 13.3 days, the “Deaths, % of patients” value [6] was 6% and the “Deaths, number of patients” value [6] was 9. The “Deaths or hospitalizations compared with usual-care group” value (all patients, each nesiritide dose group and all nesiritide group) was “no statistically significant differences”, the “Days alive and out of the hospital compared with usual-care patients” value (all patients, p=0.131) was “trends for increasing days alive and out of the hospital” and the “Days alive and out of hospital, Mean ± SD” value [7] was 73.3 ± 18.4 days. For the same substance, the “Days alive and out of hospital, Median” value [7] was 84 days, the “Patient deaths, %” value [7] was 8% and the “Patient deaths, number” value [7] was 2. The “Patients hospitalized, %” value [7] was 48%, the “Patients hospitalized, number” value [7] was 12 and the “Days alive and out of hospital, Mean ± SD” value [8] was 77.7 ± 13.5 days. The “Days alive and out of hospital, Median” value [8] was 82 days, the “Patient deaths, %” value [8] was 5% and the “Patient deaths, number” value [8] was 1. The “Patients hospitalized, %” value [8] was 55%, the “Patients hospitalized, number” value [8] was 12 and the “Days alive and out of hospital, Median” value [9] was 83 days. For the same substance, the “Patient deaths, %” value [9] was 6%, the “Patient deaths, number” value [9] was 3 and the “Patients hospitalized, %” value [10] was 51%. The “Patients hospitalized, number” value [10] was 24, the “Days alive and out of hospital, Mean ± SD” value (baseline NYHA class IV, both nesiritide groups, n = 47, p = 0.182 compared with usual care) was 75.4 ± 16.2 days and the “Days alive and out of hospital compared to usual care alone” value (elevated serum creatinine, >2.0 mg/dL) was “statistically significant increase”. The “Days alive and out of hospital, Mean ± SD” value [11] was 75.7 ± 19.0 days, the “Days alive and out of hospital, Median” value [11] was 84 days and the “Patient deaths, %” value [11] was 8%. For the same substance, the “Patient deaths, number” value [11] was 1, the “Patients hospitalized, %” value [11] was 46% and the “Patients hospitalized, number” value [11] was 6. For the same substance, the “Days alive and out of hospital, Mean ± SD” value [12] was 78.4 ± 9.0 days, the “Days alive and out of hospital, Median” value [12] was 81 days and the “Patient deaths, %” value [12] was 7%. For the same substance, the “Patient deaths, number” value [12] was 1, the “Patients hospitalized, %” value [12] was 57% and the “Patients hospitalized, number” value [12] was 8. The “Days alive and out of hospital, Median” value [13] was 81 days, the “Patient deaths, %” value [13] was 7% and the “Patient deaths, number” value [13] was 2. The “Days alive and out of hospital, Mean ± SD” value (lowest serum creatinine >2.0 mg/dL during 30 days prior to the study, both nesiritide groups, n = 27, p = 0.019 compared with usual care) was 77.1 ± 14.7 days, the “Patients hospitalized, %” value [14] was 52% and the “Patients hospitalized, number” value [14] was 14.
